Reference: the supplement of paper PMC10307832

Legend:
Assay in all cases: relative viability (nuclei count vs DMSO), 5 days (fraction); higher = more cells survive
NPK76-II-72-1 + AZD7762 = compound: CC1CC(=O)N(C2=CN=C(N=C2N1C3CCCC3)NC4=C(C=C(C=C4)C(=O)NC5CCN(CC5)C)OC)C [NPK76-II-72-1] + NC(=O)Nc1cc(-c2cccc(F)c2)sc1C(=O)N[C@H]1CCCNC1 [AZD7762] (partner 0.2 µM)
How it was run: (§1)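 Relative viability was taken as the ratio of nuclei in treated wells to nuclei in vehicle wells. Lung cancer cell lines in 1536-well plates received compounds by pin tool one day after seeding, either one drug alone or a fixed anchor-drug dose plus five library-drug doses (not always all listed) in √10 steps. Nuclei were counted on 4× images after 5 days of treatment, and values are medians of duplicate plates.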

[1] = compound: CC1CC(=O)N(C2=CN=C(N=C2N1C3CCCC3)NC4=C(C=C(C=C4)C(=O)NC5CCN(CC5)C)OC)C [NPK76-II-72-1] + Nc1nc2[nH]cc(CCc3ccc(C(=O)N[C@@H](CCC(=O)O)C(=O)O)cc3)c2c(=O)[nH]1 [Pemetrexed] (partner 0.2 µM)
How it was run: as §1

BI-2536 + Phenformin = compound: CC[C@@H]1C(=O)N(C)c2cnc(Nc3ccc(C(=O)NC4CCN(C)CC4)cc3OC)nc2N1C1CCCC1 [BI-2536] + N=C(N)NC(=N)NCCc1ccccc1 [Phenformin] (partner 250 µM)
How it was run: as §1

[2] = compound: CC1CC(=O)N(C2=CN=C(N=C2N1C3CCCC3)NC4=C(C=C(C=C4)C(=O)NC5CCN(CC5)C)OC)C [NPK76-II-72-1] + Cc1cc(Nc2cc(N3CCN(C)CC3)nc(Sc3ccc(NC(=O)C4CC4)cc3)n2)n[nH]1 [Tozasertib] (partner 0.1 µM)
How it was run: as §1

Cell Line | relative viability (NPK76-II-72-1 + AZD7762; first compound 0.01 µM) | relative viability (NPK76-II-72-1 + AZD7762; first compound 0.03162 µM) | relative viability (NPK76-II-72-1 + AZD7762; first compound 0.1 µM) | relative viability (NPK76-II-72-1 + AZD7762; first compound 0.3162 µM) | relative viability (NPK76-II-72-1 + AZD7762; first compound 1 µM) | relative viability ([1]; first compound 0.01 µM) | relative viability ([1]; first compound 0.03162 µM) | relative viability ([1]; first compound 0.1 µM) | relative viability ([1]; first compound 0.3162 µM) | relative viability ([1]; first compound 1 µM) | relative viability (BI-2536 + Phenformin; first compound 0.01 µM) | relative viability (BI-2536 + Phenformin; first compound 0.03162 µM) | relative viability (BI-2536 + Phenformin; first compound 0.1 µM) | relative viability (BI-2536 + Phenformin; first compound 0.3162 µM) | relative viability (BI-2536 + Phenformin; first compound 1 µM) | relative viability ([2]; first compound 0.01 µM) | relative viability ([2]; first compound 0.03162 µM) | relative viability ([2]; first compound 0.1 µM) | relative viability ([2]; first compound 0.3162 µM) | relative viability ([2]; first compound 1 µM)
NCI-H2405 | 0.689 | 0.775 | 0.728 | 0.746 | 0.705 | 1.04 | 1.01 | 0.956 | 1.08 | 1.06 | 0.378 | 0.377 | 0.321 | 0.153 | 0.243 | 0.723 | 0.871 | 0.762 | 0.743 | 0.816
NCI-H3122 | 0.88 | 1 | 1.03 | 0.996 | 0.973 | 0.209 | 0.191 | 0.181 | 0.195 | 0.209 | 0.38 | 0.34 | 0.137 | 0.158 | 0.127 | 0.389 | 0.425 | 0.366 | 0.365 | 0.465
PC-3 [JPC-3] | 0.766 | – | 0.738 | 0.917 | 0.751 | 0.963 | – | 1.06 | 1.18 | 1.1 | 0.477 | 0.461 | 0.271 | 0.202 | 0.176 | 0.882 | 0.861 | 0.81 | 0.904 | 0.93
PC-14 | 0.356 | 0.312 | 0.337 | 0.358 | 0.344 | 0.124 | 0.126 | 0.125 | 0.123 | 0.162 | 0.651 | 0.551 | 0.224 | 0.0459 | 0.0271 | 0.577 | 0.609 | 0.594 | 0.564 | 0.699
RERF-LC-KJ | 0.938 | 0.931 | 0.987 | 0.763 | 1.15 | 0.469 | 0.505 | 0.46 | 0.439 | 0.506 | 0.403 | 0.297 | 0.216 | 0.211 | 0.224 | 0.589 | 0.51 | 0.573 | 0.548 | 0.513
SW 900 | 0.535 | 0.645 | 0.771 | 0.569 | 0.761 | 0.445 | 0.49 | 0.493 | 0.463 | 0.493 | 0.683 | 0.564 | 0.493 | 0.106 | 0.146 | 0.675 | 0.524 | 0.482 | 0.536 | 0.644
